By pIC50 is commonly meant −log10 of the IC50, conventionally taken in molar units. Low readings indicate a large IC50, high ones a small IC50. A word on the DC50: it is the concentration giving 50% degradation. Lower therefore signals degradation at low concentration. As usually defined, the Dmax is the greatest extent of degradation seen.

pIC50: −log10 of the molar value.

We go through seven compounds from US20240425523A1, “Compounds for the Degradation of EGFR Kinase” (Beigene Switzerland GMBH, priority 2023, published 2024).

What all share (assay type): cell-based
The target in experiment [1] is p-EGFR Del19/C797S (H1975-clone #23 cells) (Homo sapiens, UniProt P00533). As to the kind of experiment: Cell p-EGFR inhibition assay, HTRF, H1975-clone#23 (DEL19/C797S) cells. To be noted: 16 h treatment; for Imax (%): maximum percentage of pEGFR inhibition; for pIC50: pEGFR inhibition. The method in brief:
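Phospho-EGFR read by overnight HTRF on lysates, normalized to DMSO-treated high control; IC50, Hill slope and Imax fitted. Compounds were applied for 16 h (10 uM top, 5-fold steps, 8 doses) to an H1975 single clone carrying only exogenous Del19/C797S EGFR after sgRNA knockout of endogenous copies.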
A general note: TR-FRET usually uses a lanthanide donor and a delayed reading to cut background.

For experiment [2], the target named is T1, EGFR-L858R/C797S (H1975-clone #8 cells) (Homo sapiens, UniProt P00533, C797S/L858R).
T1 construct: expressed in transfected cells; host or cells: H1975 (endogenous EGFR knocked out, clone #8)
As to the kind of experiment: Cell degradation of EGFR, HTRF assay, H1975-clone#8 (L858R/C797S) cells. To be noted: 16 h treatment; for DC50: EGFR degradation; for Dmax: maximum percentage of degradation.

For experiment [3], the target named is T2, p-EGFR L858R (BaF3-L858R cells) (Homo sapiens, UniProt P00533, L858R).
T2 construct: host or cells: BaF3
As to the kind of experiment: Cell p-EGFR inhibition assay, HTRF, BaF3-L858R cells. To be noted: 16 h treatment; for Imax (%): maximum percentage of pEGFR inhibition; for pIC50: pEGFR inhibition. An outline of the steps:
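BaF3-L858R cells treated 16 h at 37 °C, 5% CO2 with compound from 10 uM top, 5-fold dilutions, 8 doses, in 0.1% DMSO medium. Lysates read overnight by HTRF p-EGFR antibodies; IC50 fitted to four-parameter curve against DMSO high control.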

The target of experiment [4] is T3, EGFR L858R (BaF3-L858R cells) (Homo sapiens, UniProt P00533, L858R).
T3 construct: host or cells: BaF3
As to the kind of experiment: Cell degradation of EGFR, HTRF assay, BaF3-L858R cells. Conditions: 16 h treatment; for DC50: EGFR degradation; for Dmax: maximum percentage of degradation. The method in brief: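 EGFR L858R levels measured by HTRF antibody pair in lysed BaF3-L858R cells after 16 h compound exposure (8-point 5-fold series from 10 uM final, 37° C). Degradation is relative to DMSO-only cells; DC50 fitted with Hill equation, Dmax taken as the largest percent loss.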

`Cc1cc2cc(n1)-c1cnn(C)c1OC[C@H]1CCC(C1)CN1/C(=N/C2=O)Nc2ccc(N3CCN(C4CCN(c5ccc(NC6CCC(=O)NC6=O)nc5C)CC4)CC3)cc21` (some centres unmarked) [Example 98, 3-((5-(4-(4-((7^1R,7^3S,E)-1^1,2^6-dimethyl-3-oxo-5^2,5^3-dihydro-1^1H,5^1H-9-oxa-4-aza-5(2,1)-benzo[d]imidazola-2(2,4)-pyridina-1(4,5)-pyrazola-7(1,3)-cyclopentanacyclononaphane-5^6-yl)piperazin-1-yl)piperidin-1-yl)-6-methylpyridin-2-yl)amino)piperidine-2,6-dione]: the “Imax (%)” value in experiment [1] is 101.3%; in experiment [3], 110.3%. In addition, the pIC50 in experiment [1] is 8.85; in experiment [3], 8.33. Also, the DC50 in experiment [2] came out at 2.49 nM; in experiment [4] it was 2.6 nM. Further, the Dmax in experiment [2] worked out at 75%; in experiment [4], 80.6%.
As for `Cc1cc2cc(n1)-c1c(C)nn(C)c1OC[C@H]1CCC(C1)CN1/C(=N/C2=O)Nc2ccc(N3CCN([C@@H]4CCN(c5ccc(C6CCC(=O)NC6=O)nc5C)C[C@@H]4F)CC3)cc21` (stereo partly drawn) [Example 79, 3-(5-((3S,4R)-3-fluoro-4-(4-((7^1R,7^3S,E)-1^1,1^3,2^6-trimethyl-3-oxo-5^2,5^3-dihydro-1^1H,5^1H-9-oxa-4-aza-5(2,1)-benzo[d]imidazola-2(2,4)-pyridina-1(4,5)-pyrazola-7(1,3)-cyclopentanacyclononaphane-5^6-yl)piperazin-1-yl)piperidin-1-yl)-6-methylpyridin-2-yl)piperidine-2,6-dione], in experiment [1], the “Imax (%)” value turned out to be 101.4% and the pIC50 was 9.52. In experiment [2], this compound returned a DC50 of 0.48 nM and a Dmax of 91.7%. Besides, in experiment [3], the “Imax (%)” value came to 92.7% and the pIC50 was 8.96. For the same compound, in experiment [4], the DC50 is 0.41 nM and the Dmax was 92.6%.
With `COC[C@@H]1CN(c2ccc3c(c2)N2C[C@@H]4CC[C@H](COc5c(c(C)nn5C)-c5cc(cc(C)n5)C(=O)/N=C/2N3)C4)CCN1C1CCN(c2cc(F)c(C3CCC(=O)NC3=O)nc2C)CC1` (stereo partly drawn) [Example 89, 3-(3-fluoro-5-(4-((S)-2-(methoxymethyl)-4-((7^1R,7^3S,E)-1^1,1^3,2^6-trimethyl-3-oxo-5^2,5^3-dihydro-1^1H,5^1H-9-oxa-4-aza-5(2,1)-benzo[d]imidazola-2(2,4)-pyridina-1(4,5)-pyrazola-7(1,3)-cyclopentanacyclononaphane-5^6-yl)piperazin-1-yl)piperidin-1-yl)-6-methylpyridin-2-yl)piperidine-2,6-dione], in experiment [1], the “Imax (%)” value was determined as 101.2% and the pIC50 is 8.72. Moreover, in experiment [2], the DC50 came to 1.64 nM and the maximal degradation (Dmax) is 87.5%. Moreover, in experiment [3], the “Imax (%)” value worked out at 99.7% and the pIC50 was 8.10. In experiment [4], this compound registered a DC50 of 1.75 nM and a Dmax of 73.9%.
For the compound `COC[C@@H]1CN(c2cc3c(cc2C)N/C2=N\C(=O)c4cc(C)nc(c4)-c4c(C)nn(C)c4OC[C@H]4CC[C@H](C4)CN23)CCN1C1CCN(c2cc(F)c([C@H]3CCC(=O)NC3=O)c(F)c2)CC1` [Example 173, (R)-3-(2,6-difluoro-4-(4-((S)-2-(methoxymethyl)-4-((7^1R,7^3S,E)-1^1,1^3,2^6,5^5-tetramethyl-3-oxo-5^2,5^3-dihydro-1^1H,5^1H-9-oxa-4-aza-5(2,1)-benzo[d]imidazola-2(2,4)-pyridina-1(4,5)-pyrazola-7(1,3)-cyclopentanacyclononaphane-5^6-yl)piperazin-1-yl)piperidin-1-yl)phenyl)piperidine-2,6-dione], in experiment [1], the “Imax (%)” value stood at 103.01% and the pIC50 was 8.40. In experiment [2], this compound had a DC50 of 4.31 nM and a Dmax of 91.4%. In addition, in experiment [3], the “Imax (%)” value amounted to 98.39% and the pIC50 was 7.94. In experiment [4], this compound returned a DC50 of 4.28 nM and a Dmax of 95.2%.
As to `Cc1cc2cc(n1)-c1c(C)nn(C)c1OC[C@H]1CC[C@H](C1)CN1/C(=N/C2=O)Nc2ccc(N3CCN(CC4CN(c5cc(F)c([C@H]6CCC(=O)NC6=O)c(F)c5)C4)[C@@H](CF)C3)cc21` [Example 210, (R)-3-(2,6-difluoro-4-(3-(((R)-2-(fluoromethyl)-4-((7R,7^3S,E)-1^1,1^3,2^6-trimethyl-3-oxo-5^2,5^3-dihydro-1^1H,5^1H-9-oxa-4-aza-5(2,1)-benzo[d]imidazola-2(2,4)-pyridina-1(4,5)-pyrazola-7(1,3)-cyclopentanacyclononaphane-5^6-yl)piperazin-1-yl)methyl)azetidin-1-yl)phenyl)piperidine-2,6-dione], in experiment [1], the “Imax (%)” value is on record as 99.96% and the pIC50 was 8.81. In experiment [2], the DC50 was determined as 3.72 nM and the Dmax was determined as 86.9%. Also, in experiment [3], the “Imax (%)” value is listed as 89.17% and the pIC50 is 8.98. Also, in experiment [4], the DC50 turned out to be 0.74 nM and the Dmax came out at 90.2%.
For `COC[C@@H]1CN(c2ccc3c(c2)N2C[C@@H]4CCC(COc5c(c(C)nn5C)-c5cc(cc(C)n5)C(=O)/N=C/2N3)C4)CCN1C1CN(C2CCN(c3cc(F)c([C@H]4CCC(=O)NC4=O)c(F)c3)CC2)C1` [Example 121, (R)-3-(2,6-difluoro-4-(4-(3-((S)-2-(methoxymethyl)-4-((7R,7^3S,E)-1^1,1^3 2^6-trimethyl-3-oxo-5^2,5^3-dihydro-1^1H,5^1H-9-oxa-4-aza-5(2,1)-benzo[d]imidazola-2(2,4)-pyridina-1(4,5)-pyrazola-7(1,3)-cyclopentanacyclononaphane-5^6-yl)piperazin-1-yl)azetidin-1-yl)piperidin-1-yl)phenyl)piperidine-2,6-dione], in experiment [1], the “Imax (%)” value is 100.8% and the pIC50 was 9.15. Moreover, in experiment [2], it took 0.98 nM to reach half-maximal degradation (DC50) and the Dmax was 88.3%. Moreover, in experiment [3], the “Imax (%)” value was 96.6% and the pIC50 was 8.22. In experiment [4], this compound displayed a 50% degradation concentration (DC50) of 1.06 nM and a Dmax of 82.2%.
As to `COC[C@H]1CN(c2ccc3c(c2)N2C[C@@H]4CC[C@H](COc5c(cnn5C)-c5cc(cc(C)n5)C(=O)/N=C/2N3)C4)CCN1C1CCN(c2ccc(C3CCC(=O)NC3=O)nc2C)CC1` (stereo partly drawn) [Example 65, 3-(5-(4-((R)-4-((7^1R,7^3S,E)-1^1,2^6-dimethyl-3-oxo-5^2,5^3-dihydro-1^1H,5^1H-9-oxa-4-aza-5(2,1)-benzo[d]imidazola-2(2,4)-pyridina-1(4,5)-pyrazola-7(1,3)-cyclopentanacyclononaphane-5^6-yl)-2-(methoxymethyl)piperazin-1-yl)piperidin-1-yl)-6-methylpyridin-2-yl)piperidine-2,6-dione], the entries for the “Imax (%)” value in experiment [1] and in experiment [3] were 101.5% and 103%, respectively. The pIC50 in experiment [1] was 9.52; in experiment [3], 8.55. Further, the DC50 is 0.87 nM in experiment [2] and 0.94 nM in experiment [4]. The values for the Dmax in experiment [2] and in experiment [4] were 78.6% and 88.7%, respectively.
